How the values were obtained:
[1] = tested on: Escherchia coli (ATCC 25922); experiment: Antibacterial MIC, microplate dilution with tetrazolium violet; type: cell-based, Escherichia coli; settings: compounds in DMSO serially diluted with sterile water in microplates, overnight, 37 °C, 100% relative humidity, tetrazolium violet read-out, lowest concentration inhibiting growth
Protocol: (§1) All compounds were screened for antibacterial activity against Escherchia coli (ATCC 25922), Bacillus subtilis (ATCC 6633), Shigella flexeneri (clinical isolate), Staphylococcus aureus (ATCC 25923), Pseudomonas aeruginosa (ATCC 27853), and Salmonella typhi (ATCC 19430), according to the method as reported previously. The disc diffusion technique was used to determine the antibacterial activity of the test compounds. The compounds were dissolved in DMSO to obtain a 10 mg/mL solution. A known volume ([…]) of the solution was applied on to the sterilized filter paper discs with the help of a micropipette. The discs were dried at room temperature overnight and stored in sterile dry containers. Discs, soaked with […] of DMSO, and air dried at room temperature, were used as negative control. Bacterial cultures were grown in a nutrient broth medium at 37 °C overnight and spread on to solidified nutrient agar medium in Petri plates using sterilized cotton swabs in a standard microbiological working environment. Test and control discs were then applied to the solidified medium surface with the help of sterilized forceps. The plates were incubated at 37 °C for 12–15 h. The results were recorded by measuring the zone of inhibition in mm against each compound. Impenem was used as standard drug. MIC was calculated as previously reported. Compounds were briefly dissolved in DMSO and serially diluted with sterile water in microplates in a laminar flow cabinet. The same volume of an actively rowing culture of the test bacteria was added to the different wells and cultures were grown overnight in 100% relative humidity at 37 °C. The next morning, tetrazolium violet was added to all the wells. Growth was indicated by a violet color of the culture. The lowest concentration of the test solution that led to an inhibition of growth was taken as the MIC. The negative control DMSO had no influence on the growth at the highest concentration used. Impenem was used as controls for comparison (See Table 1).

[2] = tested on: Salmonella typhi (ATCC 19430); experiment: as above; type: cell-based; settings: compounds in DMSO serially diluted with sterile water in microplates, overnight, 37 °C, 100% relative humidity, tetrazolium violet read-out
Protocol: as §1

[3] = tested on: Shigella flexeneri (clinical isolate); experiment: as above; type: cell-based; settings: compounds in DMSO serially diluted with sterile water in microplates, overnight, 37 °C, 100% relative humidity, tetrazolium violet read-out
Protocol: as §1

[4] = tested on: Bacillus subtilis (ATCC 6633); experiment: as above; type: cell-based; settings: compounds in DMSO serially diluted with sterile water in microplates, overnight, 37 °C, 100% relative humidity, tetrazolium violet read-out
Protocol: as §1

[5] = tested on: Staphylococcus aureus (ATCC 25923); experiment: as above; type: cell-based; settings: compounds in DMSO serially diluted with sterile water in microplates, overnight, 37 °C, 100% relative humidity, tetrazolium violet read-out
Protocol: as §1

[6] = tested on: Pseudomonas aeruginosa (ATCC 27853); experiment: as above; type: cell-based; settings: compounds in DMSO serially diluted with sterile water in microplates, overnight, 37 °C, 100% relative humidity, tetrazolium violet read-out
Protocol: as §1

[7] = tested on: tested bacterial pathogens; experiment: Antibacterial activity, overall verdict over the panel; type: cell-based; settings: verdict over the six tested bacterial pathogens of Table 2
Protocol: as §1

Molecule | Minimum Inhibitory Concentration (MIC), Escherichia coli [1] [µg/mL] | Minimum Inhibitory Concentration (MIC), Salmonella typhi [2] [µg/mL] | Minimum Inhibitory Concentration (MIC), Shigella flexeneri [3] [µg/mL] | Minimum Inhibitory Concentration (MIC), Bacillus subtilis [4] [µg/mL] | Minimum Inhibitory Concentration (MIC), Staphylococcus aureus [5] [µg/mL] | Minimum Inhibitory Concentration (MIC), Pseudomonas aeruginosa [6] [µg/mL] | Antibacterial activity (in words) [7] | Minimum Inhibitory Concentration (MIC), Salmonella typhi ([2]; listed as Oxyphylline B (4)) [µg/mL]
Oxyphylline D [Compound 1] | 10 | 25 | 50 | 25 | 25 | 50 | low antibacterial activities | –
nummularin-C [Compound 2] | 10 | 10 | 100 | 25 | 25 | 100 | low antibacterial activities | –
C[C@@H](O)[C@H]1C(=O)N2C(C(=O)O)=C(SCCN=CN)C[C@H]12 [Standard, Impenem, reference compound] | 0.0002 | 0.0014 | 0.0003 | 0.0005 | 0.0009 | 0.0021 | – | –
CCC(C)C1NC(=O)C2C(CCN2C(=O)C(Cc2c[nH]c3ccccc23)N(C)C)Oc2ccc(OC)c(c2)/C=C/NC1=O (stereo not drawn) [Compound 3, nummularin-R] | 25 | 50 | 100 | 10 | 50 | 100 | low antibacterial activities | –
Oxyphylline B [Compound 4] | 5 | – | 25 | – | 25 | 50 | – | 50
Oxyphylline C [Compound 5] | 10 | 50 | 50 | 50 | 10 | 50 | low antibacterial activities | –

Source: article PMC3472760, “New 14-Membered Cyclopeptide Alkaloids from Zizyphus oxyphylla Edgew” (International Journal of Molecular Sciences, 2012)
